Data reported in US7777049B2, “Crystalline forms of Rizatriptan benzoate” (ratiopharm GmbH, priority 2004, dated 2010).

Assay: Suspension equilibration of a Form A / Form B mixture in ethyl acetate, product identified by X-ray powder diffraction
Format: physicochemical
Conditions: 7 mg Form A and 7 mg Form B suspended in 1 ml ethyl acetate, stirred 16 hours at 25° C.; Form A obtained by XRPD
Method: 7 mg rizatriptan benzoate Form A and 7 mg Form B are suspended in 1 ml ethyl acetate, and stirred 16 hours at 25° C. After filtration, a white powder is obtained.
X-ray powder diffraction measurements were performed on a Philips 1710 powder X-ray diffractometer using Cu Kα radiation (Cu Kα1=1.54060 Å). The X-ray source is operated at 45 kV and 45 mA. Spectra are recorded at a step size of 0.02° with a counting time of 2.4 seconds per step. The accuracy of the 2 theta values of conventionally recorded powder X-ray diffraction patterns is generally ±0.1-0.2°. For sample preparation, about 40 mg of substance was prepared into circular shaped quartz sample holders of 0.5 mm depth and 10 mm width.

relative thermodynamic stability of the crystalline form	SMILES
metastable form	CN(C)CCc1c[nH]c2ccc(Cn3cncn3)cc12 [Form B, N,N-dimethyl-5-(1H-1,2,4-triazol-1-ylmethyl)-1H-indole-3-ethanamine benzoate]
thermodynamically most stable form	CN(C)CCc1c[nH]c2ccc(Cn3cncn3)cc12 [Form A, N,N-dimethyl-5-(1H-1,2,4-triazol-1-ylmethyl)-1H-indole-3-ethanamine benzoate]
